Tests used:
Type in all cases: functional
SF-539 [1] = experiment: Cytotoxicity against human SF539 cells assessed as cell growth at 1 uM after 48 hrs by sulforhodamine B assay relative to control; conditions: SF-539, 48 h, read-out: Activity
HL-60(TB) = experiment: Cytotoxicity against human HL-60(TB) cells assessed as cell growth at 1 uM after 48 hrs by sulforhodamine B assay relative to control; conditions: HL-60, 48 h, read-out: Activity
MDA-MB-231 [2] = experiment: Cytotoxicity against human MDA-MB-231 cells assessed as cell growth at 100 uM after 48 hrs by sulforhodamine B assay relative to control; conditions: MDA-MB-231, 48 h, read-out: Activity
HOP-62 [3] = experiment: Cytotoxicity against human HOP62 cells assessed as cell growth at 100 uM after 48 hrs by sulforhodamine B assay relative to control; conditions: HOP-62, 48 h, read-out: Activity
SF-268 [4] = experiment: Cytotoxicity against human SF268 cells assessed as cell growth at 10 uM after 48 hrs by sulforhodamine B assay relative to control; conditions: SF-268, 48 h, read-out: Activity
SK-MEL-28 = experiment: Cytotoxicity against human SK-MEL-28 cells assessed as cell growth at 0.01 uM after 48 hrs by sulforhodamine B assay relative to control; conditions: SK-MEL-28, 48 h, read-out: Activity
DU-145 = experiment: Cytotoxicity against human DU145 cells assessed as cell growth at 0.1 uM after 48 hrs by sulforhodamine B assay relative to control; conditions: DU-145, 48 h, read-out: Activity
SF-539 [5] = experiment: Cytotoxicity against human SF539 cells assessed as cell growth at 10 uM after 48 hrs by sulforhodamine B assay relative to control; conditions: SF-539, 48 h, read-out: Activity
MDA-MB-435 = experiment: Cytotoxicity against human MDA-MB-435 cells assessed as cell growth at 100 uM after 48 hrs by sulforhodamine B assay relative to control; conditions: MDA-MB-435, 48 h, read-out: Activity
NCI-H522 = experiment: Cytotoxicity against human NCI-H522 cells assessed as cell growth at 1 uM after 48 hrs by sulforhodamine B assay relative to control; conditions: NCI-H522, 48 h, read-out: Activity
SK-MEL-5 = experiment: Cytotoxicity against human SK-MEL-5 cells assessed as growth inhibition after 48 hrs by sulforhodamine B assay; conditions: SK-MEL-5, 48 h
UACC-62 [6] = experiment: Cytotoxicity against human UACC62 cells assessed as cell growth at 1 uM after 48 hrs by sulforhodamine B assay relative to control; conditions: UACC-62, 48 h, read-out: Activity
Hs-578T = experiment: Cytotoxicity against human Hs 578T cells assessed as cell growth at 0.1 uM after 48 hrs by sulforhodamine B assay relative to control; conditions: read-out: Activity
HT-29 [7] = experiment: Cytotoxicity against human HT-29 cells assessed as cell growth at 0.01 uM after 48 hrs by sulforhodamine B assay relative to control; conditions: HT-29, 48 h, read-out: Activity
SF-268 [8] = experiment: Cytotoxicity against human SF268 cells assessed as cell growth at 100 uM after 48 hrs by sulforhodamine B assay relative to control; conditions: SF-268, 48 h, read-out: Activity
MDA-MB-231 [9] = experiment: Cytotoxicity against human MDA-MB-231 cells assessed as cell growth at 0.1 uM after 48 hrs by sulforhodamine B assay relative to control; conditions: MDA-MB-231, 48 h, read-out: Activity
RXF 393 = experiment: Cytotoxicity against human RXF393 cells assessed as cell growth at 0.01 uM after 48 hrs by sulforhodamine B assay relative to control; conditions: RXF 393, 48 h, read-out: Activity
OVCAR-4 = experiment: Cytotoxicity against human OVCAR4 cells assessed as cell growth at 10 uM after 48 hrs by sulforhodamine B assay relative to control; conditions: OVCAR-4, 48 h, read-out: Activity
MDA-MB-468 [10] = experiment: Cytotoxicity against human MDA-MB-468 cells assessed as cell growth at 0.01 uM after 48 hrs by sulforhodamine B assay relative to control; conditions: MDA-MB-468, 48 h, read-out: Activity
ACHN = experiment: Cytotoxicity against human ACHN cells assessed as cell growth at 0.01 uM after 48 hrs by sulforhodamine B assay relative to control; conditions: read-out: Activity
OVCAR-8 = experiment: Cytotoxicity against human OVCAR8 cells assessed as cell growth at 0.1 uM after 48 hrs by sulforhodamine B assay relative to control; conditions: OVCAR-8, 48 h, read-out: Activity
MDA-MB-468 [11] = experiment: Cytotoxicity against human MDA-MB-468 cells assessed as cell growth at 100 uM after 48 hrs by sulforhodamine B assay relative to control; conditions: MDA-MB-468, 48 h, read-out: Activity
SF-268 [12] = experiment: Cytotoxicity against human SF268 cells assessed as cell growth at 1 uM after 48 hrs by sulforhodamine B assay relative to control; conditions: SF-268, 48 h, read-out: Activity
RPMI-8226 = experiment: Cytotoxicity against human RPMI8226 cells assessed as cell growth at 0.1 uM after 48 hrs by sulforhodamine B assay relative to control; conditions: RPMI-8226, 48 h, read-out: Activity
HOP-62 [13] = experiment: Cytotoxicity against human HOP62 cells assessed as cell growth at 0.1 uM after 48 hrs by sulforhodamine B assay relative to control; conditions: HOP-62, 48 h, read-out: Activity
HT-29 [14] = experiment: Cytotoxicity against human HT-29 cells assessed as growth inhibition after 48 hrs by sulforhodamine B assay; conditions: HT-29, 48 h
Malme-3M = experiment: Cytotoxicity against human MALME-3M cells assessed as cell growth at 1 uM after 48 hrs by sulforhodamine B assay relative to control; conditions: read-out: Activity
K562 = experiment: Cytotoxicity against human K562 cells assessed as growth inhibition after 48 hrs by sulforhodamine B assay; conditions: K562, 48 h
MDA-MB-231 [15] = experiment: Cytotoxicity against human MDA-MB-231 cells assessed as growth inhibition after 48 hrs by sulforhodamine B assay; conditions: MDA-MB-231, 48 h
HCC 2998 = experiment: Cytotoxicity against human HCC2998 cells assessed as cell growth at 100 uM after 48 hrs by sulforhodamine B assay relative to control; conditions: HCC 2998, 48 h, read-out: Activity
MDA-MB-231 [16] = experiment: Cytotoxicity against human MDA-MB-231 cells assessed as cell growth at 10 uM after 48 hrs by sulforhodamine B assay relative to control; conditions: MDA-MB-231, 48 h, read-out: Activity
M14 = experiment: Cytotoxicity against human M14 cells assessed as cell growth at 1 uM after 48 hrs by sulforhodamine B assay relative to control; conditions: M14, 48 h, read-out: Activity
UACC-62 [17] = experiment: Cytotoxicity against human UACC62 cells assessed as cell growth at 10 uM after 48 hrs by sulforhodamine B assay relative to control; conditions: UACC-62, 48 h, read-out: Activity
NCI/ADR-RES = experiment: Cytotoxicity against human NCI/ADR-RES cells assessed as cell growth at 10 uM after 48 hrs by sulforhodamine B assay relative to control; conditions: read-out: Activity
SW-620 = experiment: Cytotoxicity against human SW620 cells assessed as cell growth at 1 uM after 48 hrs by sulforhodamine B assay relative to control; conditions: SW-620, 48 h, read-out: Activity
A549 = experiment: Cytotoxicity against human A549/ATCC cells assessed as cell growth at 10 uM after 48 hrs by sulforhodamine B assay relative to control; conditions: A549, 48 h, read-out: Activity

COc1cc2c(cc1OC)C(=O)/C(=C/c1cc(-c3ccc4c(c3)OCO4)n[nH]1)C2
growth at 1 µM (SF-539 [1]): 67%
growth at 1 µM (HL-60(TB)): 86%
growth at 100 µM (MDA-MB-231 [2]): -96%
growth at 100 µM (HOP-62 [3]): -92%
growth at 10 µM (SF-268 [4]): -75%
growth at 0.01 µM (SK-MEL-28): 104%
growth at 0.1 µM (DU-145): 101%
growth at 10 µM (SF-539 [5]): -96%
growth at 100 µM (MDA-MB-435): -95%
growth at 1 µM (NCI-H522): -6%
GI50 (SK-MEL-5): 1.89 µM
LC50 (concentration killing 50% of cells) (SK-MEL-5): 5.61 µM
TGI (SK-MEL-5): 3.06 µM
growth at 1 µM (UACC-62 [6]): 89%
growth at 0.1 µM (Hs-578T): 99%
growth at 0.01 µM (HT-29 [7]): 98%
growth at 100 µM (SF-268 [8]): -73%
growth at 0.1 µM (MDA-MB-231 [9]): 99%
growth at 0.01 µM (RXF 393): 97%
growth at 10 µM (OVCAR-4): -96%
growth at 0.01 µM (MDA-MB-468 [10]): 93%
growth at 0.01 µM (ACHN): 104%
growth at 0.1 µM (OVCAR-8): 98%
growth at 100 µM (MDA-MB-468 [11]): -86%
growth at 1 µM (SF-268 [12]): 83%
growth at 0.1 µM (RPMI-8226): 93%
growth at 0.1 µM (HOP-62 [13]): 100%
GI50 (HT-29 [14]): 1.45 µM
LC50 (HT-29 [14]): 6.63 µM
TGI (HT-29 [14]): 3.09 µM
growth at 1 µM (Malme-3M): 88%
GI50 (K562): 1.59 µM
LC50 (concentration killing 50% of cells) (K562): > 100 µM
TGI (K562): > 100 µM
GI50 (MDA-MB-231 [15]): 1.66 µM
LC50 (MDA-MB-231 [15]): 6.18 µM
TGI (MDA-MB-231 [15]): 3.2 µM
growth at 100 µM (HCC 2998): -94%
growth at 10 µM (MDA-MB-231 [16]): -87%
growth at 1 µM (M14): 98%
growth at 10 µM (UACC-62 [17]): -96%
growth at 10 µM (NCI/ADR-RES): -17%
growth at 1 µM (SW-620): 66%
growth at 10 µM (A549): -30%
